In patent publication EP2571508B1, “PROCESS FOR PRODUCING A SHRIMP HYDROLYSATE USING ELECTRODIALYSIS” (Marealis AS, priority 2010, dated 2011):
Peptide text beside a SMILES is read from it.

These compounds were tested against T1, ACE (Oryctolagus cuniculus, UniProt P12822) (assay: ACE-inhibitory activity, Cushman and Cheung method (hippuric acid from HHL)). Details: synthesized peptides.
T1 construct: purchased Sigma A 6778
T1 sequence (P12822 34-1310): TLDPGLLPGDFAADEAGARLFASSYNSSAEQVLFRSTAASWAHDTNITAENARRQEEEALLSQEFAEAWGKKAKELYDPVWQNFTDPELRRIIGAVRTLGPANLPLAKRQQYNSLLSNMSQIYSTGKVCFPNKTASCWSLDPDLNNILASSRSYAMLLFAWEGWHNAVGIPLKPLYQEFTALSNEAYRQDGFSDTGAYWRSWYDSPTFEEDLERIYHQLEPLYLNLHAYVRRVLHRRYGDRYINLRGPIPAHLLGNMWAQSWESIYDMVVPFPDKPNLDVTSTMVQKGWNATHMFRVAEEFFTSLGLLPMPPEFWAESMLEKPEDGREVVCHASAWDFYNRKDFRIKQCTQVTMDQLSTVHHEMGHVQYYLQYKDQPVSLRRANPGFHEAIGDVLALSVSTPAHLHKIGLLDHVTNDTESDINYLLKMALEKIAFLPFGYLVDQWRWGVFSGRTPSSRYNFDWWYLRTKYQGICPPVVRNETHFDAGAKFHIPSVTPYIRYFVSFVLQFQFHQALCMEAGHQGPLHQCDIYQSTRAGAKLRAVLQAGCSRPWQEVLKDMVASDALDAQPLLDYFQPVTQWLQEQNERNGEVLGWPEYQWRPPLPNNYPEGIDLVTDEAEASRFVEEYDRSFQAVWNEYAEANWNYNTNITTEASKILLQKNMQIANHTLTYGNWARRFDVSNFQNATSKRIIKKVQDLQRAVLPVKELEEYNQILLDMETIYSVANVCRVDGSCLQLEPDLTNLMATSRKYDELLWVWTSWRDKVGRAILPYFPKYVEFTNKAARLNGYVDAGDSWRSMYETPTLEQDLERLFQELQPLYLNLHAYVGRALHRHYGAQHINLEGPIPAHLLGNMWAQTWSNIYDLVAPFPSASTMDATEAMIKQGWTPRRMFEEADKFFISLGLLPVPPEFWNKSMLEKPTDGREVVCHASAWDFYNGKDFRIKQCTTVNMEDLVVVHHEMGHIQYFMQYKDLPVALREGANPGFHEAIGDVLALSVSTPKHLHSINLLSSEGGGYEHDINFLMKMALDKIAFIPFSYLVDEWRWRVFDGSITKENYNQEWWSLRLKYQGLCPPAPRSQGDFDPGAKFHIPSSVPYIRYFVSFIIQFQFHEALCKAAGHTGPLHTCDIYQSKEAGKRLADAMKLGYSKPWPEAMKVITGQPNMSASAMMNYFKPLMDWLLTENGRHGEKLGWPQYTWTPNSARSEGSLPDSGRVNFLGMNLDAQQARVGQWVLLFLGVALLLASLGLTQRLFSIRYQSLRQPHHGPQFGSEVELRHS
Assay type: biochemical
Text: The hydrolysate of the present invention has ACE-inhibitory activity. ACE-inhibitory activity may be assayed using known methods, for example based on the method reported by Cushman and Cheung (1971) by measuring the end product hippuric acid (HA) from the enzymatic reaction between ACE (Sigma A 6778) and the substrate HHL (Sigma H 1635). (CUSHMAN, D. W. & CHEUNG, H. S. (1971). Concentrations of Angiotensin-Converting Enzyme in Tissues of Rat. Biochimica Et Biophysica Acta 250(1), 261-265). A different suitable assay is disclosed by Vermeirssen et al. (2002), J. Biochem Biophys. Methods 51 (2002), pages 75-87. Briefly, this is a spectrophotometric method in which ACE inhibition is measured using the substrate furanacryloyl-Phe-Gly-Gly and rabbit lung acetone extract as the ACE source. The IC50 may be determined.
The peptide composition of the RP-HPLC fractions was analysed using LCMS (liquid chromatography mass spectrometry) and individual peptides were sequenced using LC-MS/MS (liquid chromatography - tandem mass spectrometry). Peptides having the sequences identified by LC-MS/MS were then synthesized and analysed. Molecular weight and pl were calculated by ExPASy Proteomics Server. ACE-inhibitory activity was determined based on the Cushman and Cheung method mentioned elsewhere herein and expressed as the IC50 (concentration that inhibits 50% of enzyme activity).

SMILES	IC50 [µM]
CC(C)C[C@H](NC(=O)[C@H](C)N)C(=O)N1CCC[C@H]1C(=O)N[C@@H](Cc1c[nH]cn1)C(=O)O [ALPH] (H-ALPH-OH)	> 300
CC(C)C[C@H](NC(=O)[C@@H](N)Cc1ccccc1)C(=O)O [FL] (H-Phe-Leu-OH)	380
CC(C)C[C@H](NC(=O)[C@@H](N)CCCCN)C(=O)N1CCC[C@H]1C(=O)O [KLP] (H-Lys-Leu-Pro-OH)	200
CC(C)C[C@H](N)C(=O)N[C@@H](Cc1ccccc1)C(=O)O [LF] (H-Leu-Phe-OH)	460
CC(C)C[C@H](NC(=O)[C@H](CC(C)C)NC(=O)[C@@H](N)CC(C)C)C(=O)N[C@@H](CCCCN)C(=O)O [LLLK] (H-LLLK-OH)	> 300
CC(C)C[C@H](NC(=O)[C@@H](N)CC(C)C)C(=O)N[C@H](C(=O)N[C@@H](CCCCN)C(=O)O)[C@@H](C)O [LLTK] (H-LLTK-OH)	> 300
CC(C)C[C@H](N)C(=O)N[C@@H](CC(N)=O)C(=O)N1CCC[C@H]1C(=O)N[C@@H](CCCCN)C(=O)O [LNPK] (H-LNPK-OH)	> 300
CC(C)C[C@H](N)C(=O)N[C@@H](Cc1ccc(O)cc1)C(=O)N[C@@H](CCCCN)C(=O)O [LYK] (H-Leu-Tyr-Lys-OH)	250
NCCCC[C@H](NC(=O)[C@@H]1CCCN1C(=O)[C@@H](N)CC(N)=O)C(=O)O [NPK*] (H-Asn-Pro-Lys-OH)	> 300
CC(C)C[C@H](NC(=O)[C@@H](N)C(C)C)C(=O)N[C@@H](C)C(=O)N[C@@H](Cc1c[nH]cn1)C(=O)O [VLAH*] (H-VLAH-OH)	> 300

The remaining lines, values ahead:

IC50 [µM]	SMILES
200	CC(C)C[C@H](N)C(=O)N[C@@H](CC(N)=O)C(=O)N[C@@H](C)C(=O)O [LNA*] (H-Leu-Asn-Ala-OH)
> 300	CC(C)C[C@H](N)C(=O)N[C@H](C(=O)N[C@@H](C)C(=O)N[C@@H](Cc1c[nH]cn1)C(=O)O)C(C)C [LVAH] (H-LVAH-OH)
> 300	CC(C)C[C@H](N)C(=O)N[C@H](C(=O)N[C@@H](C)C(=O)N[C@@H](CCCCN)C(=O)O)C(C)C [LVAK] (H-LVAK-OH)
225	CC(C)C[C@H](N)C(=O)N[C@H](C(=O)N[C@@H](CCCCN)C(=O)O)C(C)C [LVK] (H-Leu-Val-Lys-OH)
> 300	CC(C)[C@H](NC(=O)[C@@H](N)CC(N)=O)C(=O)N[C@@H](Cc1ccc(O)cc1)C(=O)O [NVY] (H-Asn-Val-Tyr-OH)
